{
  "source": "paper PMC3192407",
  "about": "“Both Basic and Acidic Amino Acid Residues of IpTxa Are Involved in Triggering Substate of RyR1” (Journal of Biomedicine and Biotechnology, 2011)",
  "note": "Bridge positions count the residues as written; N and C are the ends. Peptide text beside a SMILES is read from it.",
  "data": [
    {"biological_target": "T1, rabbit skeletal RyR1 (native RyR1 in HSR) (Oryctolagus cuniculus, UniProt P11716)", "T1 construct": "tested using native RyR1 in rabbit skeletal HSR; from tissue; host or cells: rabbit fast-twitch back and leg muscles (heavy SR vesicles)", "T1 sequence (P11716 whole entry)": "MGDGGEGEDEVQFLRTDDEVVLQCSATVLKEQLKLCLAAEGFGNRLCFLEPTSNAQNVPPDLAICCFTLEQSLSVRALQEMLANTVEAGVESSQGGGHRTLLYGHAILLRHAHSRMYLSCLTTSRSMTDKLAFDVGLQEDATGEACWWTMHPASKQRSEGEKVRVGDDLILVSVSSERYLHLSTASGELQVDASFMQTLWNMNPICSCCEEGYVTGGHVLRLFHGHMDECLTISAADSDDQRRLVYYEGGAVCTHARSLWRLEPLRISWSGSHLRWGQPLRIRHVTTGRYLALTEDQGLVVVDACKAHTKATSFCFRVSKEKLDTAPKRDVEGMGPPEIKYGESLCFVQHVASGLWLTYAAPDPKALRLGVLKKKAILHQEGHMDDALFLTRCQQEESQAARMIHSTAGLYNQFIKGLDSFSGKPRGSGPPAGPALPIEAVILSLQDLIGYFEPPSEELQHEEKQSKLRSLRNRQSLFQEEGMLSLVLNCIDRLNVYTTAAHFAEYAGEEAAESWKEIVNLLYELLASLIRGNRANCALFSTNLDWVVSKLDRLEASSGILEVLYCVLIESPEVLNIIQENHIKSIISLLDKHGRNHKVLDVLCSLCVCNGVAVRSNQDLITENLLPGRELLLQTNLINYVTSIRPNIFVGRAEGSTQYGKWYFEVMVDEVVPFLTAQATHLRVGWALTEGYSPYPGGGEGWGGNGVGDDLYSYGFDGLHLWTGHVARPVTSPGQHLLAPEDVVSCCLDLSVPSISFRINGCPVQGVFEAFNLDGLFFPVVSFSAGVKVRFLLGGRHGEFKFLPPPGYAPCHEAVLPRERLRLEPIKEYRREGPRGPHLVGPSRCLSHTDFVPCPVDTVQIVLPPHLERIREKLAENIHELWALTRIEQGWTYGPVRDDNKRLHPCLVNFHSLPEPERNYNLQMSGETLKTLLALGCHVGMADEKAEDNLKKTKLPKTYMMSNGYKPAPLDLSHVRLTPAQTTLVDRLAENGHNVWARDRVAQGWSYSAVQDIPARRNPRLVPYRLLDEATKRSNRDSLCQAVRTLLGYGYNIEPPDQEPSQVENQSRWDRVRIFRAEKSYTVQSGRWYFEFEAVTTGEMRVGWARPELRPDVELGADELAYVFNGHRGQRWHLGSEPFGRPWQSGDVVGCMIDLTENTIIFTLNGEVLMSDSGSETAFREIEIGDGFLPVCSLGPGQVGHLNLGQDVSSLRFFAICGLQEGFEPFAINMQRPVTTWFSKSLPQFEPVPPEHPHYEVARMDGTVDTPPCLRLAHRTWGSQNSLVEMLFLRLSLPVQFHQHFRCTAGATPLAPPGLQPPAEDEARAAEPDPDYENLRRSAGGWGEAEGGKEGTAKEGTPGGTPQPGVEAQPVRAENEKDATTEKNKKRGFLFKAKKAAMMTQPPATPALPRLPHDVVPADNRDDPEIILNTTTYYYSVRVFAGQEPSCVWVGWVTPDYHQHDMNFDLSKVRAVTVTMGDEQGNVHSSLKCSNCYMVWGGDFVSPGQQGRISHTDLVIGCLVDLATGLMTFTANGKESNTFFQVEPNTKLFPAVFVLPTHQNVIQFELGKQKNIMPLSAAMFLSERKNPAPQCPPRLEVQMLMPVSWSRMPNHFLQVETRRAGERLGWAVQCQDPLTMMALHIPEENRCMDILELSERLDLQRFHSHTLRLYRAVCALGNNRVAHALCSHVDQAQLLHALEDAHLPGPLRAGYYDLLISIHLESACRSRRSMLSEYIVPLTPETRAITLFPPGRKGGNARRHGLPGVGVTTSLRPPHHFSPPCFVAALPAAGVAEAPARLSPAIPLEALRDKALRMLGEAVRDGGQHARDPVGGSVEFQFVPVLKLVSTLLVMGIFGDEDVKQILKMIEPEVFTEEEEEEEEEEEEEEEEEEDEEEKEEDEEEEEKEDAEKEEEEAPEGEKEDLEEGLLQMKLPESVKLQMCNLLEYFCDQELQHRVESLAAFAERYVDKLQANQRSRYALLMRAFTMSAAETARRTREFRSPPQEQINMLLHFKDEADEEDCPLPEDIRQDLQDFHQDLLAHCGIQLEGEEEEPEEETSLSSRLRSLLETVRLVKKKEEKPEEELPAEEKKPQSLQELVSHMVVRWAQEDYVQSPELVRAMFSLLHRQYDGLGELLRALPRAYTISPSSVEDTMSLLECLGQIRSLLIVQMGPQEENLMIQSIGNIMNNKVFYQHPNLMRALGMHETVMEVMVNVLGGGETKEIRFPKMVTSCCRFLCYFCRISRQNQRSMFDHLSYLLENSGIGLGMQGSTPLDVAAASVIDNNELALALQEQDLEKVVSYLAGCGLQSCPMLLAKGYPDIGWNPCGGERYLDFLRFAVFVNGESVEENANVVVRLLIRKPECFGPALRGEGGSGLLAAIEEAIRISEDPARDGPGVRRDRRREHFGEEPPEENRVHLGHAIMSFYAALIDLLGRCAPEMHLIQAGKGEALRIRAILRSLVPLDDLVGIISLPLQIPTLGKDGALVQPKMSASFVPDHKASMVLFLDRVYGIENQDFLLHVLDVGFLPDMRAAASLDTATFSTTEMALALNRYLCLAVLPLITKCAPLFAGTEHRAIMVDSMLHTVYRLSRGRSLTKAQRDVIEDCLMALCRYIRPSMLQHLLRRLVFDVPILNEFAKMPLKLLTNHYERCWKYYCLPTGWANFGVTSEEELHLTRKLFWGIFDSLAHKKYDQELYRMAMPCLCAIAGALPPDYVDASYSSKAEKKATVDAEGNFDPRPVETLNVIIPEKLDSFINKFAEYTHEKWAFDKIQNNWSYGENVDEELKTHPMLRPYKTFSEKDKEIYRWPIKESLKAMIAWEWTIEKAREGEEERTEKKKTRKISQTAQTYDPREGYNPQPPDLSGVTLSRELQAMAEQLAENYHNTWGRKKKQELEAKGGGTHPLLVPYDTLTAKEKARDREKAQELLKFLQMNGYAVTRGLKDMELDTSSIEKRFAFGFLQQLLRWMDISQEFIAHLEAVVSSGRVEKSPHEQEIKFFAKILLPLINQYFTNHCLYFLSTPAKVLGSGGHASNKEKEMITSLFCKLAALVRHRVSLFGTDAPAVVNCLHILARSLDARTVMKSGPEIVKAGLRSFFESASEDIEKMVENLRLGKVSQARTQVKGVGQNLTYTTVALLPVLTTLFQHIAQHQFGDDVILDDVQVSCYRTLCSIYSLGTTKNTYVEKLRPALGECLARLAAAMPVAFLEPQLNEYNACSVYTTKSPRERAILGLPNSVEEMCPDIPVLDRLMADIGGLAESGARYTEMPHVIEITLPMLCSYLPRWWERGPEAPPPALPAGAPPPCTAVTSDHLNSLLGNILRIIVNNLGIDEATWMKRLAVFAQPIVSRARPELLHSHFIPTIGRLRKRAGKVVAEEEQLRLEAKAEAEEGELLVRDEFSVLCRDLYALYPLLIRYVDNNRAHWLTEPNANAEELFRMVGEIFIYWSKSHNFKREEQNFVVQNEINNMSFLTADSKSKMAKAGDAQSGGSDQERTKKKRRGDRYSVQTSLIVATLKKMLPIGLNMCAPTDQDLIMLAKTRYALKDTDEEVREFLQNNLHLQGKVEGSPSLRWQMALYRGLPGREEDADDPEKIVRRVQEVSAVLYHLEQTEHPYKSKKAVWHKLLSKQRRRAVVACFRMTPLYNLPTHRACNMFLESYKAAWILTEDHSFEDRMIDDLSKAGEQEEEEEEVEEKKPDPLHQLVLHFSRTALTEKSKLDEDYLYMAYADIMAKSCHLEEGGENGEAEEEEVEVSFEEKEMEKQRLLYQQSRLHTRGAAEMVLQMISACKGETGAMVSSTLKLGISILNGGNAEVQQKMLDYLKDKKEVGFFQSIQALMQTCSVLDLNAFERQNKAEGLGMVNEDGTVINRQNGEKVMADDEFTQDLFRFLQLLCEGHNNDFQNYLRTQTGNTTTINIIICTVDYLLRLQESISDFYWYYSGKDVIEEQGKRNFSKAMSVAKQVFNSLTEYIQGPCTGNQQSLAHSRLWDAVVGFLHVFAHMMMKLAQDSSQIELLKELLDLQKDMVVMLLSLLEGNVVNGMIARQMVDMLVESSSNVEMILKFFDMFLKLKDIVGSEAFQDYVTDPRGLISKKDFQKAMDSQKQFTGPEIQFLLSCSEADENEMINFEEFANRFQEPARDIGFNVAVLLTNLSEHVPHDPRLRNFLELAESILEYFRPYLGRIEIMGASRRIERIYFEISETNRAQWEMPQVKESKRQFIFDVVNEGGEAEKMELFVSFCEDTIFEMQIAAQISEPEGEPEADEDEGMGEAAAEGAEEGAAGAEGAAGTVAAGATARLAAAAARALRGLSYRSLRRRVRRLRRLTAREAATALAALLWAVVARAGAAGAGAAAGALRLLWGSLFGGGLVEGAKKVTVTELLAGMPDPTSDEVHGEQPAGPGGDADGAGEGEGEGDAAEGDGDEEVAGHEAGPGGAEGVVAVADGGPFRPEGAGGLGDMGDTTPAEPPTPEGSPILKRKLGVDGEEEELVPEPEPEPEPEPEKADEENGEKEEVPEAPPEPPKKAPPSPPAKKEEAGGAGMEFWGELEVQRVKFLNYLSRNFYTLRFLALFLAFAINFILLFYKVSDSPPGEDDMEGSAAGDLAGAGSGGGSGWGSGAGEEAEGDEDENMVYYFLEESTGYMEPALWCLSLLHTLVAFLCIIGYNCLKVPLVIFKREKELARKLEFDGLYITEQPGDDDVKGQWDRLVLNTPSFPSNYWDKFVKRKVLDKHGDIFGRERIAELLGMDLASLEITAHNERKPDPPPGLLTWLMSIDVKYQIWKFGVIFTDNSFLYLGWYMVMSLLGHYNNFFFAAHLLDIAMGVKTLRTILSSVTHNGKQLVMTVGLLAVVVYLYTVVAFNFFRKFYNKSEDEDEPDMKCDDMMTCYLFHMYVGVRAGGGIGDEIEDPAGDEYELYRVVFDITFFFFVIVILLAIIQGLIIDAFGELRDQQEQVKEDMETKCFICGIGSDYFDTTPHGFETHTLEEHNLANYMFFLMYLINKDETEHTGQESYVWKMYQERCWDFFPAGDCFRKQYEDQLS", "assay": "Planar lipid bilayer single-channel recording, native RyR1 in HSR", "format": "biochemical", "settings": "native RyR1 in SR, toxin cis, 6-100 nM, -30 mV, [Ca^2+]free 10 μM, pH 7.2, Hill fit, means ± SE of 3–9 experiments; read-out: EC50 for Psubstate", "description": "A heavy fraction of fragmented SR vesicles (HSR) containing junctional SR was prepared from rabbit fast-twitch back and leg muscles as described previously.\nSingle-channel recordings of rabbit skeletal RyR1 incorporated into planar lipid bilayers were carried out as described previously. Lipid bilayers, consisting of brain tissue phosphatidylethanolamine and phosphatidylserine (1 : 1) in decane (20 mg/mL) were formed across a hole of approximately 200 μm diameter. Thinning of the bilayer was monitored by bilayer capacitance. The basic composition of the cis/trans solution consisted of 300 mM cesium methanesulfonate, 10 mM Tris/Hepes (pH 7.2), 2 mM EGTA, and 1.998 mM CaCl2 ([Ca^2+]free = 10 μM). [Ca^2+]free was calculated using the “Chelator” program (Theo Schoenmaker). Cs^+ was selected as the charge carrier to ensure precise control of free [Ca^2+], to increase the channel conductance, and to avoid any contribution from potassium channels present in the SR membrane. Chloride channels were inhibited by using the impermeant anion methanesulfonate. Incorporation of ion channels was carried out as described by Miller and Racker and confirmed by recording the characteristically high single-channel conductance of RyRs. The trans side was maintained at ground and the cis side was clamped at −30 mV relative to the ground. After addition of the IpTxa to the cis chamber, the single channel data were collected at −30 mV for 2–5 min. […] Recordings were filtered with an 8-pole low-pass Bessel filter at 1 kHz and digitalized through a Digidata 1200 series interface (Axon Instruments). Data acquisition and analysis were done with the Axon Instruments software, pClamp v7.0.\nData were analyzed using the Hill equation described previously:\n(1) Psubstate=(Psubstate, max )/[1+(EC50/[IpTxa])^nH] orPo=(Po, max )/[1+(EC50/[IpTxa])^nH], where (Po, max ) is the Po observed at saturating concentrations of IpTxa, EC50 is the IpTxa concentration for which 50% of Po, max is obtained and nH is the Hill coefficient. Also, Psubstate, max is the Psubstate observed at saturating concentrations of IpTxa, EC50 is the IpTxa concentration for which 50% of Psubstate, max is obtained, and nH is the Hill coefficient. The probability of full open state of the channel (Po) was defined as the ratio of the time spent in the open state to the total time exclusive of time spent in the substate. The probability to obtain substate (Psubstate) was calculated as the time spent in the substate divided by a given total recording time. The durations of the substate were obtained by manual positioning of the cursors and constructing all point histograms. Mean duration of substate was measured by total substate time divided by total substate frequencies.\nResults are given as means ± SE. Significant differences were analyzed using Student's t-test. Differences were considered to be significant when P < 0.05. The fitting of the data to the graphs were carried out using the software, Origin v7.\nTo examine how IpTxa modifies RyR1 activity, RyR1 in HSR incorporated in planar lipid bilayers was tested in the presence or absence of synthetic wild-type IpTxa. The chamber solutions for both cis (cytosolic) and trans (luminal) sides included 300 mM cesium methanesulfonate and 10 mM Tris-Hepes (pH 7.2). 10 μM free Ca^2+ was added to the cis side to activate the incorporated RyR1. After an addition of IpTxa to the cis chamber, the single channel gating properties were recorded at a holding potential of −30 mV for over 2 min at each toxin concentration. […] To examine the effects of IpTxa on full open state, we calculated the probability to obtain the full open state (Po) as the time spent in the open state divided by the total time exclusive of the time spent in the substate. The time for recorded Po was in the range of 30 s–2 min. […] The steady-state Po was 0.18 ± 0.02 at 10 μM Ca^2+. […]", "units": {"EC50": "nM"}, "values": [
      {"molecule": "CC(C)C[C@@H]1NC(=O)[C@H](Cc2c[nH]cn2)NC(=O)[C@@H]2CCCN2C(=O)[C@H](CC(C)C)NC(=O)[C@@H](NC(=O)[C@H](C)NC(=O)CN)CSSC[C@@H]2NC(=O)[C@@H]3CSSC[C@@H](C(=O)N[C@@H](CCCNC(=N)N)C(=O)O)NC(=O)[C@H](CCCNC(=N)N)NC(=O)[C@H](CCCCN)NC(=O)[C@H](CCC(=O)O)NC(=O)[C@H](C)NC(=O)[C@H](CC(N)=O)NC(=O)[C@H]([C@@H](C)O)NC(=O)CNC(=O)[C@H](CCCNC(=N)N)NC(=O)[C@H](CCCNC(=N)N)NC(=O)[C@H](CCCCN)NC(=O)[C@H](CSSC[C@H](NC(=O)[C@H](CCCNC(=N)N)NC(=O)[C@H](CCCCN)NC1=O)C(=O)N[C@@H](CCCCN)C(=O)N[C@@H](C)C(=O)N[C@@H](CC(=O)O)C(=O)N[C@@H](CC(N)=O)C(=O)N[C@@H](CC(=O)O)C(=O)N3)NC(=O)[C@H](CCCCN)NC(=O)[C@H](CCCCN)NC(=O)CNC2=O", "note": "[D2A] (H-GACLPHLKRCKADNDCCGKKCKRRGTNAEKRCR-OH; disulfide 3-17, 10-21, 16-32)", "EC50": "28.6 ± 14"},
      {"molecule": "CC(C)C[C@@H]1NC(=O)[C@H](Cc2c[nH]cn2)NC(=O)[C@@H]2CCCN2C(=O)[C@H](CC(C)C)NC(=O)[C@@H](NC(=O)[C@H](CC(=O)O)NC(=O)CN)CSSC[C@@H]2NC(=O)[C@@H]3CSSC[C@@H](C(=O)N[C@@H](CCCNC(=N)N)C(=O)O)NC(=O)[C@H](CCCNC(=N)N)NC(=O)[C@H](CCCCN)NC(=O)[C@H](CCC(=O)O)NC(=O)[C@H](C)NC(=O)[C@H](CC(N)=O)NC(=O)[C@H]([C@@H](C)O)NC(=O)CNC(=O)[C@H](CCCNC(=N)N)NC(=O)[C@H](CCCNC(=N)N)NC(=O)[C@H](CCCCN)NC(=O)[C@H](CSSC[C@H](NC(=O)[C@H](CCCNC(=N)N)NC(=O)[C@H](CCCCN)NC1=O)C(=O)N[C@@H](CCCCN)C(=O)N[C@@H](C)C(=O)N[C@@H](C)C(=O)N[C@@H](CC(N)=O)C(=O)N[C@@H](CC(=O)O)C(=O)N3)NC(=O)[C@H](CCCCN)NC(=O)[C@H](CCCCN)NC(=O)CNC2=O", "note": "[D13A] (H-GDCLPHLKRCKAANDCCGKKCKRRGTNAEKRCR-OH; disulfide 3-17, 10-21, 16-32)", "EC50": "21.7 ± 7.92"},
      {"molecule": "CC(C)C[C@@H]1NC(=O)[C@H](Cc2c[nH]cn2)NC(=O)[C@@H]2CCCN2C(=O)[C@H](CC(C)C)NC(=O)[C@@H](NC(=O)[C@H](CC(=O)O)NC(=O)CN)CSSC[C@@H]2NC(=O)[C@@H]3CSSC[C@@H](C(=O)N[C@@H](CCCNC(=N)N)C(=O)O)NC(=O)[C@H](CCCNC(=N)N)NC(=O)[C@H](CCCCN)NC(=O)[C@H](CCC(=O)O)NC(=O)[C@H](C)NC(=O)[C@H](CC(N)=O)NC(=O)[C@H]([C@@H](C)O)NC(=O)CNC(=O)[C@H](CCCNC(=N)N)NC(=O)[C@H](CCCNC(=N)N)NC(=O)[C@H](CCCCN)NC(=O)[C@H](CSSC[C@H](NC(=O)[C@H](CCCNC(=N)N)NC(=O)[C@H](CCCCN)NC1=O)C(=O)N[C@@H](CCCCN)C(=O)N[C@@H](C)C(=O)N[C@@H](CC(=O)O)C(=O)N[C@@H](CC(N)=O)C(=O)N[C@@H](C)C(=O)N3)NC(=O)[C@H](CCCCN)NC(=O)[C@H](CCCCN)NC(=O)CNC2=O", "note": "[D15A] (H-GDCLPHLKRCKADNACCGKKCKRRGTNAEKRCR-OH; disulfide 3-17, 10-21, 16-32)", "EC50": "21.5 ± 1.92"},
      {"molecule": "CC(C)C[C@@H]1NC(=O)[C@H](Cc2c[nH]cn2)NC(=O)[C@@H]2CCCN2C(=O)[C@H](CC(C)C)NC(=O)[C@@H](NC(=O)[C@H](CC(=O)O)NC(=O)CN)CSSC[C@@H]2NC(=O)[C@@H]3CSSC[C@@H](C(=O)N[C@@H](CCCNC(=N)N)C(=O)O)NC(=O)[C@H](CCCNC(=N)N)NC(=O)[C@H](CCCCN)NC(=O)[C@H](C)NC(=O)[C@H](C)NC(=O)[C@H](CC(N)=O)NC(=O)[C@H]([C@@H](C)O)NC(=O)CNC(=O)[C@H](CCCNC(=N)N)NC(=O)[C@H](CCCNC(=N)N)NC(=O)[C@H](CCCCN)NC(=O)[C@H](CSSC[C@H](NC(=O)[C@H](CCCNC(=N)N)NC(=O)[C@H](CCCCN)NC1=O)C(=O)N[C@@H](CCCCN)C(=O)N[C@@H](C)C(=O)N[C@@H](CC(=O)O)C(=O)N[C@@H](CC(N)=O)C(=O)N[C@@H](CC(=O)O)C(=O)N3)NC(=O)[C@H](CCCCN)NC(=O)[C@H](CCCCN)NC(=O)CNC2=O", "note": "[E29A] (H-GDCLPHLKRCKADNDCCGKKCKRRGTNAAKRCR-OH; disulfide 3-17, 10-21, 16-32)", "EC50": "6.07 ± 4.28"},
      {"molecule": "CC(C)C[C@@H]1NC(=O)[C@H](Cc2c[nH]cn2)NC(=O)[C@@H]2CCCN2C(=O)[C@H](CC(C)C)NC(=O)[C@@H](NC(=O)[C@H](CC(=O)O)NC(=O)CN)CSSC[C@@H]2NC(=O)[C@@H]3CSSC[C@@H](C(=O)N[C@@H](CCCNC(=N)N)C(=O)O)NC(=O)[C@H](CCCNC(=N)N)NC(=O)[C@H](CCCCN)NC(=O)[C@H](CCC(=O)O)NC(=O)[C@H](C)NC(=O)[C@H](CC(N)=O)NC(=O)[C@H]([C@@H](C)O)NC(=O)CNC(=O)[C@H](CCCNC(=N)N)NC(=O)[C@H](CCCNC(=N)N)NC(=O)[C@H](CCCCN)NC(=O)[C@H](CSSC[C@H](NC(=O)[C@H](CCCNC(=N)N)NC(=O)[C@H](CCCCN)NC1=O)C(=O)N[C@@H](C)C(=O)N[C@@H](C)C(=O)N[C@@H](CC(=O)O)C(=O)N[C@@H](CC(N)=O)C(=O)N[C@@H](CC(=O)O)C(=O)N3)NC(=O)[C@H](CCCCN)NC(=O)[C@H](CCCCN)NC(=O)CNC2=O", "note": "[K11A] (H-GDCLPHLKRCAADNDCCGKKCKRRGTNAEKRCR-OH; disulfide 3-17, 10-21, 16-32)", "EC50": "21.8 ± 3.49"},
      {"molecule": "CC(C)C[C@@H]1NC(=O)[C@H](Cc2c[nH]cn2)NC(=O)[C@@H]2CCCN2C(=O)[C@H](CC(C)C)NC(=O)[C@@H](NC(=O)[C@H](CC(=O)O)NC(=O)CN)CSSC[C@@H]2NC(=O)[C@@H]3CSSC[C@@H](C(=O)N[C@@H](CCCNC(=N)N)C(=O)O)NC(=O)[C@H](CCCNC(=N)N)NC(=O)[C@H](CCCCN)NC(=O)[C@H](CCC(=O)O)NC(=O)[C@H](C)NC(=O)[C@H](CC(N)=O)NC(=O)[C@H]([C@@H](C)O)NC(=O)CNC(=O)[C@H](CCCNC(=N)N)NC(=O)[C@H](CCCNC(=N)N)NC(=O)[C@H](CCCCN)NC(=O)[C@H](CSSC[C@H](NC(=O)[C@H](CCCNC(=N)N)NC(=O)[C@H](CCCCN)NC1=O)C(=O)N[C@@H](CCCCN)C(=O)N[C@@H](C)C(=O)N[C@@H](CC(=O)O)C(=O)N[C@@H](CC(N)=O)C(=O)N[C@@H](CC(=O)O)C(=O)N3)NC(=O)[C@H](CCCCN)NC(=O)[C@H](C)NC(=O)CNC2=O", "note": "[K19A] (H-GDCLPHLKRCKADNDCCGAKCKRRGTNAEKRCR-OH; disulfide 3-17, 10-21, 16-32)", "EC50": "21.8 ± 6.47"},
      {"molecule": "CC(C)C[C@@H]1NC(=O)[C@H](Cc2c[nH]cn2)NC(=O)[C@@H]2CCCN2C(=O)[C@H](CC(C)C)NC(=O)[C@@H](NC(=O)[C@H](CC(=O)O)NC(=O)CN)CSSC[C@@H]2NC(=O)[C@@H]3CSSC[C@@H](C(=O)N[C@@H](CCCNC(=N)N)C(=O)O)NC(=O)[C@H](CCCNC(=N)N)NC(=O)[C@H](CCCCN)NC(=O)[C@H](CCC(=O)O)NC(=O)[C@H](C)NC(=O)[C@H](CC(N)=O)NC(=O)[C@H]([C@@H](C)O)NC(=O)CNC(=O)[C@H](CCCNC(=N)N)NC(=O)[C@H](CCCNC(=N)N)NC(=O)[C@H](CCCCN)NC(=O)[C@H](CSSC[C@H](NC(=O)[C@H](CCCNC(=N)N)NC(=O)[C@H](CCCCN)NC1=O)C(=O)N[C@@H](CCCCN)C(=O)N[C@@H](C)C(=O)N[C@@H](CC(=O)O)C(=O)N[C@@H](CC(N)=O)C(=O)N[C@@H](CC(=O)O)C(=O)N3)NC(=O)[C@H](C)NC(=O)[C@H](CCCCN)NC(=O)CNC2=O", "note": "[K20A] (H-GDCLPHLKRCKADNDCCGKACKRRGTNAEKRCR-OH; disulfide 3-17, 10-21, 16-32)", "EC50": "18.5 ± 8.17"}
    ]}
  ]
}
